Results reported in article PMC8053192, “Engineering of a borneol dehydrogenase from P. putida for the enzymatic resolution of camphor” (Applied Microbiology and Biotechnology, 2021).

Tested on: T1, glucose dehydrogenase (GDH) from Pseudomonas sp.
T1 construct: commercial enzyme, Sigma-Aldrich (UK)
Assay: steady-state kinetics, Michaelis-Menten fit
Assay type: biochemical
Conditions: pH 5.0, 30 °C; NAD+ as co-substrate; read-out: apparent Km

Work on `OC[C@H]1OC(O)[C@H](O)[C@@H](O)[C@@H]1O` (stereo partly shown) [glucose] yielded a Km of 3.6 ± 0.35 mM.
